Data from US20110294992A1, “METAL RESPONSIVE MRI-AGENTS” (The Regents of the University of California, priority 2010, published 2011).
Values joined by “and” are separate entries in the source; they are usually repeats but may differ in a detail not shown here. Equal entries are not always repeated.

Legend:
Assay type in all cases: physicochemical
[1] = Longitudinal relaxivity (r1) from T1 measurements at 60 MHz, absence of copper; conditions: no copper; 60 MHz, 20 mM HEPES buffer, pH 7, 37° C., 0.2 mM Gd^3+
Experimental: (§1) The longitudinal relaxivity values for the CG contrast agents in the absence or presence of copper ions were determined using T1 measurements at 60 MHz. Studies were performed at 37° C. in 20 mM HEPES buffered to pH 7, and solutions of the purified CG sensors for relaxivity experiments contained 0.2 mM Gd^3+ as determined by ICP-OES. Spectroscopic data are collected in Table 1.
Nuclear magnetic relaxation dispersion (NMRD) experiments provide supporting evidence for this proposal (vide infra).

[2] = Longitudinal relaxivity (r1) turn-on response to Cu+ from T1 measurements at 60 MHz; conditions: 1 equiv Cu^+, 20 mM HEPES buffer, pH 7, 37° C.
Experimental: as §1
Upon addition of up to 1 equiv of copper ions, the relaxivity values of the CG contrast agents increase, establishing the ability of these probes to sense copper using the MR modality (Table 1, FIG. 3). CG2, CG3, CG4, and CG5 respond to Cu^+ with relaxivity increases ranging from 92% to 360%. […] These values represent the largest relaxivity enhancements observed to date for metal-activated MR contrast agents and a ca. 9-fold improvement in copper ion response compared to CG1 (41% increase). The observed differences in turn-on Cu^+ responses for benzyl-substituted CG4 (290% increase) versus methyl-substituted CG5 (92% increase) with the same pyridyl-thioether receptor show the marked effects that small peripheral substitutions can have on relaxivity properties.

[3] = Electrochemical Cu2+/Cu+ reduction potentials of copper-bound CG complexes; conditions: PBS buffer, pH 7.4
Experimental: CG6 is a unique member of the CG family that is equally responsive to both Cu^+ and Cu^2+. Addition of either Cu^+ or Cu^2+ to CG6 triggers a maximum 73% relaxivity turn-on from r1=2.2 mM^−1s^−1 to r1=3.8 mM^−1s^−1. […] On the other hand, copper-bound CG6, which responds to both Cu^+ and Cu^2+, has the least positive Cu^2+/Cu^+ reduction potential at +0.13 V.

r1 (no Cu) [1]: 1.5 mM⁻¹ s⁻¹
r1 (1 equiv Cu) [2]: 6.9 mM^−1s^−1 and 6.9^b mM^−1s^−1
Cu^2+/+ E1/2 [3]: 0.46 V vs. SHE
Compound: CCSCCN(CCSCC)Cc1cccc(CN2CCN(CC(=O)[O-])CCN(CC(=O)[O-])CCN(CC(=O)[O-])CC2)n1.[Gd+3] [CG2]
